Values of other authors in patent publication US20070275062A1, “Controlled release oxycodone compositions” (priority 1993, published 2007).
Read-outs that look alike come from different tables or passages of the source.

Test system: pain
Details: for dose-response slopes: Beaver, et al.

COc1ccc2c3c1O[C@H]1C(=O)CC[C@@]4(O)[C@@H](C2)N(C)CC[C@]314 [oxycodone]
parallelism of the dose-response curves (in comparison with other oral and parenteral opioids): no substantial deviation from parallelism | dose-response slopes (oral as compared to parenteral oxycodone): comparable dose-response slopes | dose-response slopes (parenteral oxycodone as compared to parenteral morphine): comparable dose-response slopes
